Measurements published in patent US20200003760A1, “IN-VITRO METHODS FOR CLASSIFYING DRUGS ACCORDING TO THEIR POTENTIAL TO CAUSE LIVER CELL INJURY” (Board of Trustees of Michigan State University, priority 2018, published 2020).
Read-outs that look alike come from different tables or passages of the source.

Tests used:
[1] = test system: HepG2 cells; assay: Drug/cytokine-induced cytotoxicity (% LDH release) concentration-response in HepG2 cells; type: cell-based, human; design: key to Deltadiff: LDH release percentage points (drug/TNF Delta minus drug/VEH Delta); conditions: for R10 IFN: with IFN; for R10 TNF: with TNF; for R10 TNF/IFN / EC10 TNF/IFN: with TNF and IFN; for Deltadiff: Delta of drug/TNF curve minus Delta of drug/VEH curve (LDH percentage); for cytotoxic interaction of drug with TNF: TNF 10 ng/ml; for cytotoxicity of drug on its own (LDH release): absence of cytokines; for TNF change: D10TNF − D10VEH; for EC10: value corresponding to 10% of Delta (max-min); for EC10 TNF: with TNF 10 ng/ml
Experimental: Cells were passed or used for experiments when they reached approximately 80% confluence. Cells were used at passage 6-16.
HepG2 cells were plated at a density of 4×10^4 cells per well in black-walled, 96-well, tissue culture plates and were allowed to attach overnight before being treated with compounds. Drugs were reconstituted in vehicles consisting of sterile water or DMSO (concentration less than 0.5%). Cells were treated with various concentrations of the drug or its vehicle (control) alone or in combination with the cytokines TNF (10 ng/ml) and/or IFN (10 ng/ml) or their PBS vehicle (VEH). Cytotoxicity was evaluated as lactate dehydrogenase (LDH) activity released from the cells into culture medium using the Homogeneous Membrane Integrity Assay kit from Promega (Madison, Wis.).
Concentration-response curves were generated for 24 drugs, 14 of which are associated with human IDILI and 10 of which are not. […] This was necessary because four-parameter logistic modeling used in the statistical analysis requires well defined, sigmoidal concentration-response curves. Cells were exposed to drug/cytokine combinations for 24 hours. For analysis of drug concentration-response data, concentrations of each drug were expressed as a fraction of its Cmax.
Defining covariates: four-parameter logistic model. In the first phase, variables (potential covariates) for use in the classification analysis were defined from the analysis of drug concentration-response data. Initially, a one-way analysis of variance (ANOVA) was used as an omnibus test to determine if a particular treatment (e.g. drug alone or in combination with TNF and/or IFN) caused a significant change in LDH release relative to baseline (i.e., LDH release in the absence of drug, hereafter designated “min”). The criterion for significance for the ANOVA was set at α=0.01. A 1% level of significance was used to rule out more vigorously marginal relationships between concentration and response.
where LDH(x) is the percentage of LDH released at a given concentration x; x=[drug]/Cmax; min=the % LDH release at 0 drug concentration (i.e., baseline); and max=the maximal LDH response (i.e., maximum % LDH release).
where D10 is a categorical variable related to reaching a threshold LDH response above which a drug is classified as positively associated with IDILI. D10 is defined as 0 if Delta<10% LDH release and as 1 if Delta≥10% LDH release.
The base covariate R10 represents the [drug]/Cmax value associated with an increase in 10 LDH percentage points above min for a particular treatment condition and was determined by the equation:
R10 was considered to be 0 when the Delta<10% LDH (i.e. when D10=0).
EC50 quotient, EC10 quotient and R10 quotient represent the ratio between the EC50, EC10 or R10 of the drug/cytokine concentration-response curve and the respective value for the drug/VEH concentration-response curve. In some instances, the value derived from this calculation is indeterminate (i.e. when the denominator=0). In order to incorporate the quotient values into the classification models described below, the categorical variable “Q” was used to eliminate the possibility of the quotient being indeterminate. Q is defined as 0 if Delta VEH and/or Delta cytokine is <10% LDH and 1 if both Delta VEH and Delta cytokine are ≥10% LDH. […] The same condition was applied for calculation of EC10 quotient and R10 quotient.
Deltadiff represents the difference between the Delta of the drug/cytokine concentration-response curve and the Delta of the drug/VEH curve. In other words, Deltadiff=(Delta cytokine)−(Delta VEH). FIG. 1 graphically illustrates several of the covariates defined above. […] In addition to the covariates derived from the concentration-response curves, the maximal therapeutic plasma drug concentration (Cmax) in human patients was used in some models (Table 1).

[2] = Logistic regression classification model: probability that a drug is associated with IDILI; design: species or system human; conditions: for Estimated probability: probability that drug is associated with IDILI, covariates Deltadiff, EC50 VEH, EC50 TNF, Delta VEH, Cmax, optimal cutoff 0.46; for calculated probability for association with IDILI: best-performing classification model
Source text: Classification modeling using defined covariates. In the second phase of analysis, classification models were developed using logistic regression with covariates as independent variables in the analysis and known IDILI classification as the dependent variable. A model selection process was used to determine if a covariate or set of covariates is associated with IDILI liability. Covariates were first evaluated individually to determine how well a particular covariate classified drugs according to IDILI liability, and then covariates were evaluated in combination. Combinations of covariates were selected to maximize the ability of the model to distinguish between drugs associated or not with IDILI. Specifically, covariates that describe changes in efficacy (Delta, Deltadiff, etc.) were paired with covariates that describe changes in potency (EC50, EC10, R10, etc.) to find covariate combinations that led to models that most accurately discriminated between drugs that are and are not associated with IDILI. […] The logistic regression models follow the equation: […]
where ŷi is the calculated (predicted) probability that drug i with a vector of covariates xi is associated with IDILI. The β coefficients (β0, the regression intercept; and βi, the regression slopes for model covariates, xi) were derived from the logistic regression models using 1) combinations of the covariates (xi) generated by concentration-response modeling for each of the 24 drugs evaluated in this study, and 2) the true IDILI classification for the dependent variable yi (i.e., 1 for IDILI+drugs and 0 for IDILI-drugs). […] This occurs when a covariate almost perfectly separates observations into the appropriate categories. […] When separation or quasi-complete separation occurs, use of the standard method (i.e., maximum likelihood estimation) provides biased, unreliable estimates of βi.
Receiver operating characteristic (ROC) analysis. In the third phase of the statistical approach, the classification models, generated as logistic regression models using single covariates or combinations of covariates, were evaluated by ROC analysis to determine which model and corresponding sets of covariates led to the most accurate classification of drugs according to their potential to cause IDILI. An ROC curve was created for each model by graphing the true positive rate (sensitivity; i.e., proportion of drugs correctly classified as associated with IDILI) against the false positive rate (1-specificity; i.e., proportion of drugs incorrectly classified as associated with IDILI) at various probability cutoff thresholds (k). […] An area under the curve (AUC) and confidence interval was computed for each ROC curve (where each logistic regression model has one ROC curve). […] Corresponding to each ROC curve is an optimal threshold value (k*), the threshold yielding the highest point of accuracy on the curve (i.e., the point nearest the point […] on the curve). Thus, each ROC curve has a corresponding AUC and an optimal cutoff (k*) that corresponds to the highest point of accuracy on that ROC curve.

[3] = cited from earlier work
[4] = cited from earlier work; for True classification: IDILI in human patients; for IDILI liability: criteria of Xu et al. (2008)
[5] = 10 percent increase in LDH response above min, 0 when D10 = 0, drug alone (VEH)
[6] = 10 percent increase in LDH response above min, 0 when D10 = 0
[7] = Homo sapiens, HepG2, maximal LDH response, drug alone (VEH), 24 h, read-out: max
[8] = drug alone (VEH), NA = no significant increase
[9] = value corresponding to 10% of Delta, NA = no significant increase
[10] = maximal plasma concentration after pharmacologic dosing in human patients
[11] = Homo sapiens, HepG2, categorical, Delta threshold 10 LDH percentage points, drug alone (VEH), read-out: D10

SMILES	Estimated probability [2]	R10 [1, 5]	R10 IFN [1, 6]	R10 TNF [1, 6]	R10 TNF/IFN [1, 6]	Deltadiff [1]	cytotoxic interaction of drug with TNF ([1]; HepG2, 24 h)	cytotoxicity of drug on its own (LDH release) ([1]; HepG2, 24 h)	Emax [1, 7] [%]	TNF change ([1]; categorical)	EC10 TNF [1, 9]	EC10 TNF/IFN [1, 9]	Cmax [3, 10] [nM]	True classification [4]	IDILI liability [4]	Emax [1, 11] [%]	other results
COc1cccc2c1C(=O)c1c(O)c3c(c(O)c1C2=O)C[C@@](O)(C(=O)CO)C[C@@H]3O[C@H]1C[C@H](N)[C@H](O)[C@H](C)O1 [Doxorubicin]	0.8839	12.4 [drug]/Cmax	9.7 [drug]/Cmax	2.0 [drug]/Cmax	0.7 [drug]/Cmax	−15.2	TNF significantly enhanced the cytotoxicity	statistically significant increase in LDH release	113	0	1.7 [drug]/Cmax	0.6 [drug]/Cmax	1000	IDILI+	IDILI+	–	D10 (LDH rise of at least 10 points, yes/no) ([1]; Homo sapiens, HepG2, categorical, Delta threshold 10 LDH percentage points, drug alone (VEH)): > 10%; EC10 [1, 8]: 12.0 [drug]/Cmax
CC(CN1c2ccccc2Sc2ccccc21)N(C)C (stereo not shown) [Promethazine]	0.1275	0 [drug]/Cmax	0 [drug]/Cmax	0 [drug]/Cmax	0 [drug]/Cmax	0	–	–	17	0	–	–	60	IDILI−	IDILI−	< 10	–
Cc1onc(-c2c(F)cccc2Cl)c1C(=O)N[C@@H]1C(=O)N2[C@@H]1SC(C)(C)[C@@H]2C(=O)O [Flucloxacillin]	0.1545	0 [drug]/Cmax	0 [drug]/Cmax	0 [drug]/Cmax	0 [drug]/Cmax	0	no statistically significant increase in LDH	no statistically significant increase in LDH	17.9	0	–	–	72600	IDILI+	IDILI+	< 10	synergy with cytokines to kill HepG2 cells ([1]; HepG2, 24 h, TNF and/or IFN): did not synergize with cytokines to kill HepG2 cells; calculated probability for association with IDILI [2]: 0.154; classification by the best-performing model ([2]; optimal cutoff): incorrectly classified as not associated with IDILI; pattern of liver injury in humans ([4]; human patients): cholestatic rather than hepatocellular
CS(=O)(=O)Nc1ccc([N+](=O)[O-])cc1Oc1ccccc1 [Nimesulide]	1	–	0 [drug]/Cmax	32.0 [drug]/Cmax	33.5 [drug]/Cmax	92.3	synergized with TNF to cause cytotoxicity	caused no cytotoxicity on their own	14.6	1	31.8 [drug]/Cmax	33.2 [drug]/Cmax	21100	–	–	–	R10 [1]: 0 [drug]/Cmax; Emax ([1]; Homo sapiens, HepG2, read-out: D10): < 10%
COc1ccc2cc([C@H](C)C(=O)O)ccc2c1 [Naproxen]	0.8589	60.5 [drug]/Cmax	65.9 [drug]/Cmax	24.3 [drug]/Cmax	18.4 [drug]/Cmax	−9.3	–	–	102	–	23.6 [drug]/Cmax	17.3 [drug]/Cmax	–	IDILI+	–	> 10	EC10 [1, 8]: 59.8 [drug]/Cmax; EC10 IFN ([1]; value corresponding to 10% of Delta, with IFN 10 ng/ml, NA = no significant increase): 64.8 [drug]/Cmax
CC(C)(O)C(=O)Nc1ccc([N+](=O)[O-])c(C(F)(F)F)c1 [2-hydroxyflutamide]	–	–	–	–	–	–	–	–	–	–	–	–	–	–	–	–	calculated probability for association with IDILI [2]: 0.999; Cmax ([3]; metabolite of flutamide in vivo): 5740 nM

Further lines, with some results ahead:

Estimated probability [2]	SMILES	R10 [1, 5]	R10 IFN [1, 6]	R10 TNF [1, 6]	R10 TNF/IFN [1, 6]	Deltadiff [1]	cytotoxic interaction of drug with TNF ([1]; HepG2, 24 h)	cytotoxicity of drug on its own (LDH release) ([1]; HepG2, 24 h)	Emax [1, 7] [%]	TNF change ([1]; categorical)	EC10 TNF [1, 9]	EC10 TNF/IFN [1, 9]	Cmax [3, 10] [nM]	True classification [4]	IDILI liability [4]	Emax [1, 11] [%]	other results
0.1275	CN[C@H]1CC[C@@H](c2ccc(Cl)c(Cl)c2)c2ccccc21 [Sertraline]	0 [drug]/Cmax	0 [drug]/Cmax	0 [drug]/Cmax	0 [drug]/Cmax	0	–	–	14	0	–	–	60	IDILI−	IDILI−	< 10	–
0.1278	CS(=O)(=O)c1ccc(C2=C(c3ccccc3)C(=O)OC2)cc1 [Rofecoxib]	0 [drug]/Cmax	0 [drug]/Cmax	0 [drug]/Cmax	0 [drug]/Cmax	0	–	–	12.2	0	–	–	1000	IDILI−	IDILI−	< 10	–
